Measured values taken from PMC6965684, “Characterization of binding, functional activity, and contractile responses of the selective 5‐HT1F receptor agonist lasmiditan” (British Journal of Pharmacology, 2019).
Structures can show the parent of a compound that is named as a salt. Where two headings read alike, the source gives them in different places.

Experiments:
5-HT1F receptor [1] = biological target: T1, 5-HT1F receptor (Homo sapiens, UniProt P30939); experiment: cAMP HTRF, stably transfected CHO-K1 cells; type: cell-based
T1 construct: gene HTR1F; full-length human recombinant receptor in CHO-K1 cells (Ogeda)
T1 sequence (P30939 1-366): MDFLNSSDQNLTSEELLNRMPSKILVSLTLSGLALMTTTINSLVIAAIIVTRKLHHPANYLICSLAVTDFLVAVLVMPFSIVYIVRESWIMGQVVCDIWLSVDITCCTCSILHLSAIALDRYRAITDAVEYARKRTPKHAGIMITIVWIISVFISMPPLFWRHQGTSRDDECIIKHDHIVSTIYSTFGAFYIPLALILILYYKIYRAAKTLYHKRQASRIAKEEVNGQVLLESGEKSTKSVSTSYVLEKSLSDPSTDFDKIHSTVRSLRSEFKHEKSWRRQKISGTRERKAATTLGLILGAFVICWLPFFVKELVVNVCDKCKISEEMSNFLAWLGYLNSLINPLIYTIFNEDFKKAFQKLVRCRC

5-HT1B receptor [2] = biological target: T2, 5-HT1B receptor (Homo sapiens, UniProt P28222); experiment: cell-based; set-up: species or system CHO-K1; cAMP HTRF agonist assay, Gi coupled receptors, inhibition of stimulated cAMP
T2 construct: gene HTR1B; full-length human recombinant receptor in CHO-K1 cells (Ogeda); crude membranes
Protocol: (§1) Concentration–response curves were performed in parallel with the agonists. […] After addition of the lysis buffer and 1‐hr incubation, cAMP concentrations were estimated according to the manufacturer specification with the HTRF kit (Cisbio International, Codelet, France). In brief, increasing concentrations of agonists were added to stably transfected cells in buffer in an Optiplate (PerkinElmer Life Sciences, Massachusetts, USA). The plates were incubated, and cells were then lysed by the addition of HTRF reagents (cAMP‐Cryptate and anti‐cAMP‐d2 reagents) and diluted in lysis buffer, followed by incubation at room temperature. […] Additionally, the reference values obtained were compared to historical values obtained from the same receptor and used to validate the experimental session. […] For the new assays developed in this study (i.e., 5‐ht1E receptor), the two independent pIC50 determined must be concordant with a 1 log unit interval for the assays to be validated.

5-ht1E receptor [3] = biological target: T3, 5-ht1E receptor (Homo sapiens, UniProt P28566); experiment: cell-based; set-up: species or system CHO-K1; cAMP HTRF agonist assay, Gi coupled receptors, inhibition of stimulated cAMP; details: cAMP
T3 construct: gene HTR1E; full-length human recombinant receptor in CHO-K1 cells (Ogeda); crude membranes
Protocol: as §1

5-HT1D receptor = biological target: T4, 5-HT1D receptor (Homo sapiens, UniProt P28221); experiment: biochemical; type: CHO-K1 membranes; set-up: radioligand competition binding on cell membranes, filtration and TopCount scintillation counting; details: radioligand displacement; read-out: 5‐HT1D / pIC50 (converted)
T4 construct: gene HTR1D; full-length human recombinant receptor in CHO-K1 cells (Ogeda); crude membranes
Protocol: (§2) Competition binding was performed in duplicate in the wells of a 96‐well plate containing binding buffer (optimized for each receptor), cell membrane extracts (approximately 20,000 cells distributed in the 96‐well plate), radiotracer, and test agonist. Non‐specific binding was determined by co‐incubation with 200‐fold excess of competitor. Cells were incubated and exposed to varying concentrations (1 pM to 10 μM) of a range of displacer agonists (see below). The samples were incubated in a final volume of 0.1 ml and then filtered over Unifilter plates (Perkin Elmer, Massachusetts, USA) pretreated for 2 hr to limit tracer non‐specific binding. Filters were washed five times with 0.5 ml of ice‐cold washing buffer (tris 50 mM pH 7.4) and 50 μl of Microscint 20 (Perkin Elmer) were added to each filter. The plates were incubated 15 min at room temperature on an orbital shaker and then counted with a TopCount™ (Perkin Elmer) for 1 min per well. […] Additionally, the reference values obtained were compared to historical values obtained from the same receptor and used to validate the experimental session. […] For the new assays developed in this study (i.e., 5‐ht1E receptor), the two independent pIC50 determined must be concordant with a 1 log unit interval for the assays to be validated.

5-HT1B receptor [4] = biological target: T2, 5-HT1B receptor; experiment: biochemical; type: CHO-K1 membranes; set-up: radioligand competition binding on cell membranes, filtration and TopCount scintillation counting; details: radioligand displacement; read-out: 5‐HT1B / pIC50 (converted)
Protocol: as §2

5-ht1E receptor [5] = biological target: T3, 5-ht1E receptor; experiment: biochemical; type: CHO-K1 membranes; set-up: radioligand competition binding on cell membranes, filtration and TopCount scintillation counting; details: radioligand displacement; read-out: 5‐ht1E / pIC50 (converted)
Protocol: as §2

5-HT2B receptor = biological target: T5, 5-HT2B receptor (Homo sapiens, UniProt P41595); experiment: biochemical; type: CHO-K1 membranes; set-up: radioligand competition binding on cell membranes, filtration and TopCount scintillation counting; details: radioligand displacement; read-out: 5‐HT2B / pIC50 (converted)
T5 construct: gene HTR2B; full-length human recombinant receptor in CHO-K1 cells (Ogeda); crude membranes
Protocol: as §2

5-HT1F receptor [6] = biological target: T1, 5-HT1F receptor; experiment: radioligand competition, CHO-K1 membranes; type: binding; details: read-out: 5-HT1F / pKi (converted)
5-HT1F receptor [7] = biological target: T1, 5-HT1F receptor; experiment: biochemical; type: CHO-K1 membranes; set-up: radioligand competition binding on cell membranes, filtration and TopCount scintillation counting; details: radioligand displacement; for IC50: read-out: 5‐HT1F / pIC50 (converted); for Ki: read-out: 5‐HT1F / pKi (converted)
Protocol: as §2, with “validated. […]” for “validated.”

[8] = read-out: 5-HT1F / cAMP (converted)
[9] = cAMP, read-out: 5‐HT1B / cAMP (converted)

T5 sequence (P41595 whole entry): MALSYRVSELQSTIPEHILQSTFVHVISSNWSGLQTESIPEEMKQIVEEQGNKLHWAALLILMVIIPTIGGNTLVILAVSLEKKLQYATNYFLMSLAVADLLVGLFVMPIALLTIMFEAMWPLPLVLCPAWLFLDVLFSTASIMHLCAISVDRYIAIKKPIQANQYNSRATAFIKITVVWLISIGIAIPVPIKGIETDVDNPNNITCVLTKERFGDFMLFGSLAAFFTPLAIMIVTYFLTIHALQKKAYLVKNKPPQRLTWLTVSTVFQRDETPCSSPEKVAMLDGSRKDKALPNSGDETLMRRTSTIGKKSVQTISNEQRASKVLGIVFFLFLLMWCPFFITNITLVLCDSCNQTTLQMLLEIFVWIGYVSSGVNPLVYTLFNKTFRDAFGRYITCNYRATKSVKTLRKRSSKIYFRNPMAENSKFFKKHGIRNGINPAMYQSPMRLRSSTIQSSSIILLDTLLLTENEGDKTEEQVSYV
T3 sequence (P28566 whole entry): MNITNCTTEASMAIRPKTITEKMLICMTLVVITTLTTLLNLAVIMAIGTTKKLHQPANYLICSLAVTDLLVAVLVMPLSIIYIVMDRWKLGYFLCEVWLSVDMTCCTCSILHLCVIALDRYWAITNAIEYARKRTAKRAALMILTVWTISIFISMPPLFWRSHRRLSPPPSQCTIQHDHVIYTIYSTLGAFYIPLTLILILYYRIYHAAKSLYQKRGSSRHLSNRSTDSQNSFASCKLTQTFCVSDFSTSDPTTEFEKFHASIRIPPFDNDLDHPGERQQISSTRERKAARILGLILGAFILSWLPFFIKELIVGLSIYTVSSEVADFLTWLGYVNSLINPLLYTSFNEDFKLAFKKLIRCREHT
T2 sequence (P28222 whole entry): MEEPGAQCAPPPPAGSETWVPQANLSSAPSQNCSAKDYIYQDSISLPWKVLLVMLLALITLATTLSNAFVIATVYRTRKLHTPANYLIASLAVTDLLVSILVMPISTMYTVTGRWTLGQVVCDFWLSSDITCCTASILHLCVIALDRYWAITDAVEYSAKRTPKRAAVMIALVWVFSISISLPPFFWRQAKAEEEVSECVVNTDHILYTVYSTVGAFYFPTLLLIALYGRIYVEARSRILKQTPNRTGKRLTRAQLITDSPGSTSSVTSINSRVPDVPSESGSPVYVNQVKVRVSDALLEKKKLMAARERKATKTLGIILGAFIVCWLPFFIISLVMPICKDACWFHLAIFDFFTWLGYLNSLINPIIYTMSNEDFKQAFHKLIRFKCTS
T4 sequence (P28221 whole entry): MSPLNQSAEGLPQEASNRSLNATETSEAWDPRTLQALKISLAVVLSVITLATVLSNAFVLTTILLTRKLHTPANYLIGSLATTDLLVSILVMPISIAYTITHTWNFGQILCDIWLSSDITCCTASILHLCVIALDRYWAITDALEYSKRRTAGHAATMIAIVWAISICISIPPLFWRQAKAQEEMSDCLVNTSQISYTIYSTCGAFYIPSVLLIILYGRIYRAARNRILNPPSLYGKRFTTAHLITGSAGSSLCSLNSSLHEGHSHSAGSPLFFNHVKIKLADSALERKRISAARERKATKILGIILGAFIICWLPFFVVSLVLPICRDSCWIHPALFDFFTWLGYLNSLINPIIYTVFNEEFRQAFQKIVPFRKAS

Row | SMILES | EC50 (5-HT1F receptor [1]; [8]) [nM] | EC50 (5-HT1B receptor [2]; [9]) [nM] | EC50 (5-ht1E receptor [3]) [nM] | IC50 (5-HT1D receptor) [nM] | IC50 (5-HT1B receptor [4]) [nM] | IC50 (5-ht1E receptor [5]) [nM] | IC50 (5-HT2B receptor) [nM] | Ki (5-HT1F receptor [6]) [nM] | IC50 (5-HT1F receptor [7]) [nM] | Ki (5-HT1F receptor [7]) [nM] | EC50 (5-HT1F receptor [1]; read-out: 5-HT1A / cAMP) [nM] | EC50 (5-HT1B receptor [2]) [nM]
1 | CNS(=O)(=O)Cc1ccc2[nH]cc(CCCN3CCN(c4ncncc4OC)CC3)c2c1 [Avitriptan fumarate] | 81.3 | 2.69 | 3020 | 3.8 | 4.79 | 7080 | 1860 | 77.6 | 204 |  |  | 
2 | CN1CCC[C@@H]1Cc1c[nH]c2ccc(CCS(=O)(=O)c3ccccc3)cc12 [Eletriptan hydrobromide] | 7.41 | 10 | 29.5 | 0.49 | 1.58 | 123 | 724 | 17 | 44.7 |  |  | 
3 | CNC1CCc2[nH]c3ccc(C(N)=O)cc3c2C1 (racemic) [Frovatriptan racemate] |  |  | 9120 |  |  | > 10000 |  |  | 316 | 120 |  | 
4 | N#Cc1ccc(N2CCN(C(=O)COc3ccc4[nH]cc(CCN)c4c3)CC2)cc1 [Donitriptan hydrochloride] |  |  | > 10000 | 0.661 | 0.513 | 3390 | 1320 |  |  |  | > 10000 | 0.11
5 | CNS(=O)(=O)CCc1ccc2[nH]cc(C3CCN(C)CC3)c2c1 [Naratriptan hydrochloride] | 4.17 | 8.91 | 17.8 | 2.4 |  |  | > 10000 | 1.78 | 4.68 |  |  | 
6 | CN(C)[C@@H]1CCc2[nH]c3ccc(NC(=O)c4ccc(F)cc4)cc3c2C1 [LY344864 hydrochloride] |  |  |  |  |  |  | 4900 |  | 4.17 | 1.58 |  | 
